Source: patent US4059687A, “Ester substituted dibiguanides and non-toxic antimicrobial compositions thereof” (Colgate Palmolive Company, priority 1976, dated 1977)
Converted amounts (≈) assume the structure as drawn. Structures can show the parent of a compound that is named as a salt.

Tests used:
[1] = system: Aspergillus niger; assay: test tube serial dilution test (minimal inhibitory concentration), A. niger (mold); assay type: cell-based; details: broth serial dilution; for MIC: Aspergillus niger, read-out: Minimum Inhibitory Concentration, A. niger
Text: (§1) It has been observed that the compounds generally described by the foregoing formula are particularly effective against gram positive organisms such as Staphylococcus aureus, Streptococcus sanguis and Streptococcus mutans; gram negative organisms such as Pseudomonas aeruginosa and Escherichia coli; and against fungi, such as Candida alibicans (yeast) and Trichophyton mentogrophytes and Aspergillus niger (mold). Compounds wherein A or B is a carboxyl radical in lieu of instant alkyl ester radical are substantially devoid of antibacterial activity.
(§2) The anti-microbial nature of the instant novel nontoxic compounds was shown by a standard test tube serial dilution test in which an appropriate number of test tubes of broth containing decreasing concentrations of the test agent was innoculated with the test organism (0.1% in ethyl alcohol). After a suitable period of incubation, the tubes were examined for the presence or absence of growth. The activity of the test agent was the lowest concentration which inhibited the growth of the organism and is expressed as the minimal inhibitory concentration in μ gm/ml. As shown in the following table of antimicrobial data, the dibiguanides of this invention are active against a variety of micro-organisms with maximum activity with a butyl and pentyl ester substituent on the phenyl radical.

[2] = system: Trichophyton mentogrophytes; assay: test tube serial dilution test (minimal inhibitory concentration), T. ment (mold); assay type: cell-based; details: broth serial dilution; for MIC: Trichophyton, read-out: Minimum Inhibitory Concentration, T. ment
Text: as §1, §2

[3] = system: Staphylococcus aureus; assay: test tube serial dilution test (minimal inhibitory concentration), S. aureus (Gram positive); assay type: cell-based; details: broth serial dilution; for MIC: Staphylococcus aureus, read-out: Minimum Inhibitory Concentration, S. aureus
Text: as §1, §2

[4] = system: C. albicans; assay: test tube serial dilution test (minimal inhibitory concentration), C. albicans (yeast); assay type: cell-based; details: broth serial dilution; for MIC: Candida albicans, read-out: Minimum Inhibitory Concentration, C. albicans
Text: as §1, §2

[5] = system: Streptococcus sanguis; assay: test tube serial dilution test (minimal inhibitory concentration), Strep. sanguis (Gram positive); assay type: cell-based; details: broth serial dilution; for MIC: Streptococcus, read-out: Minimum Inhibitory Concentration, Strep. sanguis
Text: as §1, §2

[6] = system: Streptococcus mutans; assay: test tube serial dilution test (minimal inhibitory concentration), Strep. mutans (Gram positive); assay type: cell-based; details: broth serial dilution; for MIC: Streptococcus mutans, read-out: Minimum Inhibitory Concentration, Strep. mutans
Text: as §1, §2

[7] = system: Escherichia coli; assay: test tube serial dilution test (minimal inhibitory concentration), E. coli (Gram negative); assay type: cell-based; details: broth serial dilution; for MIC: Escherichia coli, read-out: Minimum Inhibitory Concentration, E. coli
Text: as §1, §2

[8] = system: Pseudomonas aeruginosa; assay: test tube serial dilution test (minimal inhibitory concentration), Ps. aeruginosa (Gram negative); assay type: cell-based; details: broth serial dilution; for MIC: Pseudomonas aeruginosa, read-out: Minimum Inhibitory Concentration, Ps. aeruginosa
Text: as §1, §2

[9] = system: dental plaque; details: background statement; cited from earlier work
[10] = on standing; cited from earlier work
[11] = literature; cited from earlier work

MIC [1] | MIC [2] | MIC [4] | MIC [5] | MIC [7] | MIC [8] | MIC [3] | MIC [6] | SMILES | Minimum Inhibitory Concentration, S. aureus [3] | Minimum Inhibitory Concentration, Strep. mutans [6] | Minimum Inhibitory Concentration, A. niger [1] | Minimum Inhibitory Concentration, T. ment [2] | Minimum Inhibitory Concentration, C. albicans [4] | Minimum Inhibitory Concentration, Strep. sanguis [5] | Minimum Inhibitory Concentration, E. coli [7] | Minimum Inhibitory Concentration, Ps. aeruginosa [8] | antibacterial effect against dental plaque [9] | hydrolysis of solutions to p-chloroaniline [10] | bacteriostatic activity in words [11]
100 µg/mL (≈ 181 µM) | 25 µg/mL (≈ 45.2 µM) | 25 µg/mL (≈ 45.2 µM) | 50 µg/mL (≈ 90.5 µM) | 50 µg/mL (≈ 90.5 µM) | 25 µg/mL (≈ 45.2 µM) |  |  | COC(=O)c1ccc(NC(=N)NC(=N)NCCCCCCNC(=N)NC(=N)Nc2ccc(C(=O)OC)cc2)cc1 [drawing 6: A = CH3 OCO, B = H] | 3.12 μgm/ml | 25 μgm/ml |  |  |  |  |  |  |  |  | 
100 µg/mL (≈ 181 µM) | 12.5 µg/mL (≈ 22.6 µM) | 25 µg/mL (≈ 45.2 µM) | 100 µg/mL (≈ 181 µM) | 12.5 µg/mL (≈ 22.6 µM) | 50 µg/mL (≈ 90.5 µM) | 3.12 µg/mL (≈ 5.65 µM) | 1.56 µg/mL (≈ 2.82 µM) | COC(=O)c1cccc(NC(=N)NC(=N)NCCCCCCNC(=N)NC(=N)Nc2cccc(C(=O)OC)c2)c1 [A = H, B = CH3 OCO] |  |  |  |  |  |  |  |  |  |  | 
 |  |  |  |  |  |  |  | CCCCOC(=O)c1ccc(NC(=N)NC(=N)NCCCCCCNC(=N)NC(=N)Nc2ccc(C(=O)OCCCC)cc2)cc1 [A = C4 H9 OCO, B = H] | 0.1 μgm/ml | < .05 μgm/ml | 50 μgm/ml | 12.5 μgm/ml | 0.78 μgm/ml | .78 μgm/ml | 1.56 μgm/ml | 12.5 μgm/ml |  |  | 
100 µg/mL (≈ 144 µM) | 12.5 µg/mL (≈ 18 µM) | 0.39 µg/mL (≈ 0.563 µM) | 0.39 µg/mL (≈ 0.563 µM) | 6.25 µg/mL (≈ 9.02 µM) | 50 µg/mL (≈ 72.2 µM) | 0.39 µg/mL (≈ 0.563 µM) | 0.39 µg/mL (≈ 0.563 µM) | CCCCCCOC(=O)c1ccc(NC(=N)NC(=N)NCCCCCCNC(=N)NC(=N)Nc2ccc(C(=O)OCCCCCC)cc2)cc1 [A = C6 H13 OCO, B = H] |  |  |  |  |  |  |  |  |  |  | 
50 µg/mL (≈ 78.5 µM) | 6.25 µg/mL (≈ 9.81 µM) | 0.39 µg/mL (≈ 0.612 µM) | 1.56 µg/mL (≈ 2.45 µM) | 0.78 µg/mL (≈ 1.22 µM) | 12.5 µg/mL (≈ 19.6 µM) | < 0.05 µg/mL | < 0.05 µg/mL | CCCCOC(=O)c1cccc(NC(=N)NC(=N)NCCCCCCNC(=N)NC(=N)Nc2cccc(C(=O)OCCCC)c2)c1 [A = H, B = C4 H9 OCO] |  |  |  |  |  |  |  |  |  |  | 
100 µg/mL (≈ 164 µM) | 3.12 µg/mL (≈ 5.13 µM) | 3.12 µg/mL (≈ 5.13 µM) | 3.12 µg/mL (≈ 5.13 µM) | 1.56 µg/mL (≈ 2.56 µM) | 25 µg/mL (≈ 41.1 µM) | 0.19 µg/mL (≈ 0.312 µM) | < 0.05 µg/mL | CCCOC(=O)c1ccc(NC(=N)NC(=N)NCCCCCCNC(=N)NC(=N)Nc2ccc(C(=O)OCCC)cc2)cc1 [A = C3 H7 OCO, B = H] |  |  |  |  |  |  |  |  |  |  | 
100 µg/mL (≈ 191 µM) | 100 µg/mL (≈ 191 µM) | 100 µg/mL (≈ 191 µM) | 100 µg/mL (≈ 191 µM) | 100 µg/mL (≈ 191 µM) | 50 µg/mL (≈ 95.3 µM) | 10 µg/mL (≈ 19.1 µM) | 25 µg/mL (≈ 47.7 µM) | N=C(NCCCCCCNC(=N)NC(=N)Nc1ccc(C(=O)O)cc1)NC(=N)Nc1ccc(C(=O)O)cc1 [A = COOH, B = H, reference compound] |  |  |  |  |  |  |  |  |  |  | 
 |  |  |  |  |  |  |  | N=C(NCCCCCCNC(=N)NC(=N)Nc1ccc(Cl)cc1)NC(=N)Nc1ccc(Cl)cc1 [Chlorhexidine hydrochloride, reference compound] | .19 μgm/ml | < .05 μgm/ml | 25 μgm/ml | 1.56 μgm/ml | 3.12 μgm/ml | 6.25 μgm/ml | .78 μgm/ml | 12.5 μgm/ml |  |  | 
100 µg/mL (≈ 157 µM) |  | 0.78 µg/mL (≈ 1.22 µM) | 0.78 µg/mL (≈ 1.22 µM) | 3.12 µg/mL (≈ 4.9 µM) | 25 µg/mL (≈ 39.3 µM) | 0.05 µg/mL (≈ 0.0785 µM) | < 0.05 µg/mL | CCCCOC(=O)c1ccc(NC(=N)NC(=N)NCCCCCCNC(=N)NC(=N)Nc2ccc(C(=O)OCCCC)cc2)cc1 [drawing 6: A = C4 H9 OCO, B = H] |  |  |  | 0.19 μgm/ml |  |  |  |  |  |  | 
50 µg/mL | 12.5 µg/mL | 3.12 µg/mL | 12.5 µg/mL | 3.12 µg/mL | 50 µg/mL | 0.19 µg/mL | 0.1 µg/mL | CC(C)OC(=O)c1cccc(NC(=N)NC(=N)NCCCCCCNC(=N)NC(=N)Nc2cccc(C(=O)OC(C)C)c2)c1 [A = H, B = (CH3)2 CHOCO, dihydrochloride] |  |  |  |  |  |  |  |  |  |  | 
50 µg/mL (≈ 75.2 µM) | 25 µg/mL (≈ 37.6 µM) | 0.39 µg/mL (≈ 0.587 µM) | 0.19 µg/mL (≈ 0.286 µM) | 25 µg/mL (≈ 37.6 µM) | 50 µg/mL (≈ 75.2 µM) | 0.39 µg/mL (≈ 0.587 µM) | < 0.05 µg/mL | CCCCCOC(=O)c1ccc(NC(=N)NC(=N)NCCCCCCNC(=N)NC(=N)Nc2ccc(C(=O)OCCCCC)cc2)cc1 [A = C5 H11 OCO, B = H] |  |  |  |  |  |  |  |  |  |  | 
 |  |  |  |  |  |  |  | COC(=O)c1ccc(NC(=N)NC(=N)NCCCCCCNC(=N)NC(=N)Nc2ccc(C(=O)OC)cc2)cc1 [A = CH3 OCO, B = H] | 6.25 μgm/ml | 1.56 μgm/ml | 100 μgm/ml | 12.5 μgm/ml | 25 μgm/ml | 50 μgm/ml | 25 μgm/ml | 50 μgm/ml |  |  | 
50 µg/mL (≈ 82.1 µM) | 6.25 µg/mL (≈ 10.3 µM) | 1.56 µg/mL (≈ 2.56 µM) | 6.25 µg/mL (≈ 10.3 µM) | 1.56 µg/mL (≈ 2.56 µM) | 25 µg/mL (≈ 41.1 µM) | 0.19 µg/mL (≈ 0.312 µM) | 0.1 µg/mL (≈ 0.164 µM) | CC(C)OC(=O)c1ccc(NC(=N)NC(=N)NCCCCCCNC(=N)NC(=N)Nc2ccc(C(=O)OC(C)C)cc2)cc1 [A = (CH3)2 CHOCO, B = H] |  |  |  |  |  |  |  |  |  |  | 
100 µg/mL | 12.5 µg/mL | 12.5 µg/mL | 25 µg/mL | 1.56 µg/mL | 25 µg/mL | 0.78 µg/mL | 0.39 µg/mL | CCOC(=O)c1ccc(NC(=N)NC(=N)NCCCCCCNC(=N)NC(=N)Nc2ccc(C(=O)OCC)cc2)cc1 [A = C2 H5 OCO, B = H, N,N"-bis(4-ethoxycarbonylphenyl)-3,12-diimino-2,4,11,13-tetraazatetradecanediimidamide dihydrochloride] |  |  |  |  |  |  |  |  |  |  | 
100 µg/mL | 25 µg/mL | 12.5 µg/mL | 25 µg/mL | 12.5 µg/mL | 50 µg/mL | 1.56 µg/mL | 1.56 µg/mL | CCCCCCCCOC(=O)c1ccc(NC(=N)NC(=N)NCCCCCCNC(=N)NC(=N)Nc2ccc(C(=O)OCCCCCCCC)cc2)cc1 [A = C8 H17 OCO, B = H, N,N"-bis(4-Octyloxycarbonylphenyl)-3,12-diimino-2,4,11,13-tetraazatetradecanediimidamide dihydrochloride] |  |  |  |  |  |  |  |  |  |  | 

SMILES | MIC [1] | MIC [2] | MIC [4] | MIC [5] | MIC [7] | MIC [8] | MIC [3] | MIC [6] | Minimum Inhibitory Concentration, S. aureus [3] | Minimum Inhibitory Concentration, Strep. mutans [6] | Minimum Inhibitory Concentration, A. niger [1] | Minimum Inhibitory Concentration, T. ment [2] | Minimum Inhibitory Concentration, C. albicans [4] | Minimum Inhibitory Concentration, Strep. sanguis [5] | Minimum Inhibitory Concentration, E. coli [7] | Minimum Inhibitory Concentration, Ps. aeruginosa [8] | antibacterial effect against dental plaque [9] | hydrolysis of solutions to p-chloroaniline [10] | bacteriostatic activity in words [11]
N=C(NCCCCCCNC(=N)NC(=N)Nc1ccc(Cl)cc1)NC(=N)Nc1ccc(Cl)cc1 [Chlorhexidine, reference compound] | 25 µg/mL (≈ 49.5 µM) |  | 1.56 µg/mL (≈ 3.09 µM) |  |  |  | 0.19 µg/mL (≈ 0.376 µM) | < 0.05 µg/mL |  |  |  |  |  | 3.12 μgm/ml | 0.19 μgm/ml |  | effective antibacterial agent against dental plaque | hydrolyze on standing to form additional amounts of p-chloroaniline | selected as the best
